Assay results taken from ChEMBL document CHEMBL3588812, “Thiophene and benzodioxole appended thiazolyl-pyrazoline compounds: Microwave assisted synthesis, antimicrobial and molecular docking studies” (2015).
The source made the active and inactive calls. The rule behind the calls is not given here.

Columns and labels:
Micrococcus luteus = experiment: Antimicrobial activity against Micrococcus luteus MTCC 106 assessed as inhibition of visual microbial growth incubated for 24 hrs at 37 degC; format: functional; details: MTCC 106, 24 h
Klebsiella aerogenes = experiment: Antimicrobial activity against Enterobacter aerogenes MTCC 111 assessed as inhibition of visual microbial growth incubated for 24 hrs at 37 degC; format: functional
Staphylococcus aureus [1] = experiment: Antimicrobial activity against methicillin-resistant Staphylococcus aureus assessed as inhibition of visual microbial growth incubated for 24 hrs at 37 degC; format: functional
Candida albicans = experiment: Antimicrobial activity against Candida albicans MTCC 227 assessed as inhibition of visual microbial growth incubated for 48 to 72 hrs at 28 degC; format: functional
Proteus vulgaris = experiment: Antimicrobial activity against Proteus vulgaris MTCC 1771 assessed as inhibition of visual microbial growth incubated for 24 hrs at 37 degC; format: functional
Shigella flexneri = experiment: Antimicrobial activity against Shigella flexneri MTCC 1457 assessed as inhibition of visual microbial growth incubated for 24 hrs at 37 degC; format: functional; details: MTCC 1457, 24 h
Staphylococcus aureus [2] = experiment: Antimicrobial activity against Staphylococcus aureus MTCC 96 assessed as inhibition of visual microbial growth incubated for 24 hrs at 37 degC; format: functional; details: MTCC 96, 24 h
Klebsiella pneumoniae = experiment: Antimicrobial activity against Klebsiella pneumoniae MTCC 109 assessed as inhibition of visual microbial growth incubated for 24 hrs at 37 degC; format: functional; details: MTCC 109, 24 h
Malassezia pachydermatis = experiment: Antimicrobial activity against Malassezia pachydermatis assessed as inhibition of visual microbial growth incubated for 48 to 72 hrs at 28 degC; format: functional
Salmonella typhimurium = experiment: Antimicrobial activity against Salmonella typhimurium MTCC 1251 assessed as inhibition of visual microbial growth incubated for 24 hrs at 37 degC; format: functional, Salmonella enterica subsp. enterica serovar Typhimurium; details: Salmonella enterica, MTCC 1251, 24 h

Row | Compound | MIC (Micrococcus luteus) | MIC (Klebsiella aerogenes; MTCC 111, 24 h) | MIC (Staphylococcus aureus [1]) | MIC (Candida albicans) | MIC (Proteus vulgaris) | MIC (Shigella flexneri) | MIC (Staphylococcus aureus [2]) | MIC (Klebsiella pneumoniae) | MIC (Malassezia pachydermatis) | MIC (Salmonella typhimurium) | MIC (Proteus vulgaris; MTCC 1771, 24 h) | MIC (Klebsiella aerogenes)
1 | Fc1ccc(-c2csc(N3N=C(c4cccs4)CC3c3cc4c(cc3Br)OCO4)n2)cc1 (stereo unspecified) | 125 µg/mL | 250 µg/mL | inactive | 250 µg/mL | inactive | 250 µg/mL | 250 µg/mL | 500 µg/mL | 500 µg/mL | 250 µg/mL |  | 
2 | N#Cc1cccc(-c2csc(N3N=C(c4cccs4)CC3c3ccc4c(c3)OCO4)n2)c1 (stereo unspecified) | 31.2 µg/mL | 125 µg/mL | 62.5 µg/mL | 125 µg/mL |  | 125 µg/mL | 31.2 µg/mL | 62.5 µg/mL | 250 µg/mL | 62.5 µg/mL | 250 µg/mL | 
3 | Fc1cc(Cl)ccc1-c1csc(N2N=C(c3cccs3)CC2c2cc3c(cc2Br)OCO3)n1 (stereo unspecified) | 125 µg/mL | 125 µg/mL | 62.5 µg/mL | 62.5 µg/mL |  | 62.5 µg/mL | 125 µg/mL | 62.5 µg/mL | 125 µg/mL | 31.2 µg/mL | 62.5 µg/mL | 
4 | Cc1ccc(-c2csc(N3N=C(c4cccs4)CC3c3cc4c(cc3Br)OCO4)n2)cc1 (stereo unspecified) | 62.5 µg/mL | 125 µg/mL | 250 µg/mL | 125 µg/mL |  | 125 µg/mL | 62.5 µg/mL | 62.5 µg/mL | 250 µg/mL | 62.5 µg/mL | 125 µg/mL | 
5 | Fc1cc(-c2csc(N3N=C(c4cccs4)CC3c3cc4c(cc3Br)OCO4)n2)ccc1Cl (stereo unspecified) | 125 µg/mL | 250 µg/mL | 250 µg/mL | 500 µg/mL |  | 125 µg/mL | 125 µg/mL | 125 µg/mL | 500 µg/mL | 125 µg/mL | 125 µg/mL | 
6 | CC(=O)N1CCN(c2ccc(OCC3COC(Cn4ccnc4)(c4ccc(Cl)cc4Cl)O3)cc2)CC1 (stereo unspecified) [KETOCONAZOLE] |  |  |  | 25 µg/mL |  |  |  |  |  |  |  | 
7 | Brc1cc2c(cc1C1CC(c3cccs3)=NN1c1nc(-c3ccccc3)cs1)OCO2 (stereo unspecified) | 125 µg/mL | 62.5 µg/mL | 250 µg/mL | 125 µg/mL |  | 250 µg/mL | 125 µg/mL | 250 µg/mL | 125 µg/mL | 125 µg/mL | 62.5 µg/mL | 
8 | Clc1ccc(-c2csc(N3N=C(c4cccs4)CC3c3ccc4c(c3)OCO4)n2)cc1 (stereo unspecified) | 250 µg/mL | 250 µg/mL | 250 µg/mL | 500 µg/mL |  | 250 µg/mL | 125 µg/mL | 62.5 µg/mL | 500 µg/mL | 250 µg/mL | 125 µg/mL | 
9 | Fc1cc(-c2csc(N3N=C(c4cccs4)CC3c3ccc4c(c3)OCO4)n2)ccc1Cl (stereo unspecified) | 62.5 µg/mL | 125 µg/mL | 250 µg/mL | 125 µg/mL |  | 125 µg/mL | 500 µg/mL | 250 µg/mL | 500 µg/mL | 500 µg/mL | 500 µg/mL | 
10 | N#Cc1cccc(-c2csc(N3N=C(c4cccs4)CC3c3cc4c(cc3Br)OCO4)n2)c1 (stereo unspecified) | 31.2 µg/mL | 62.5 µg/mL | 62.5 µg/mL | 62.5 µg/mL |  | 62.5 µg/mL | 31.2 µg/mL | 62.5 µg/mL | 125 µg/mL | 31.2 µg/mL | 31.2 µg/mL | 
11 | c1ccc(-c2csc(N3N=C(c4cccs4)CC3c3ccc4c(c3)OCO4)n2)cc1 (stereo unspecified) | 250 µg/mL | 250 µg/mL | 500 µg/mL | 250 µg/mL |  | 500 µg/mL | 500 µg/mL | 500 µg/mL | 500 µg/mL | 250 µg/mL | 500 µg/mL | 
12 | Cc1ccc(-c2csc(N3N=C(c4cccs4)CC3c3ccc4c(c3)OCO4)n2)cc1 (stereo unspecified) | 500 µg/mL |  | 250 µg/mL | 125 µg/mL |  | 250 µg/mL | 250 µg/mL | 125 µg/mL | 500 µg/mL | 125 µg/mL | 500 µg/mL | inactive
